Test results published in ChEMBL document CHEMBL3045544, “Synthesis, antimicrobial and antioxidant activities of some new indole derivatives containing pyridopyrimidine and pyrazolopyridine moieties” (Med Chem Res, 2013).

Experiments:
Escherichia coli = assay: Antimicrobial activity against Escherichia coli MTCC 723 assessed as diameter of growth inhibition zone at 500 ug/ml after 24 hr by cup-plate method; assay type: functional; details: MTCC 723, 24 h, read-out: DIZ
Aspergillus oryzae = assay: Antimicrobial activity against Aspergillus oryzae MTCC 3567 assessed as diameter of growth inhibition zone at 500 ug/ml after 72 hr by cup-plate method; assay type: functional; details: MTCC 3567, 72 h, read-out: DIZ
Klebsiella pneumoniae = assay: Antimicrobial activity against Klebsiella pneumoniae NCTC 13368 assessed as diameter of growth inhibition zone at 500 ug/ml after 24 hr by cup-plate method; assay type: functional; details: NCTC 13368, 24 h, read-out: DIZ
Staphylococcus aureus = assay: Antimicrobial activity against Staphylococcus aureus ATCC 29513 assessed as diameter of growth inhibition zone at 500 ug/ml after 24 hr by cup-plate method; assay type: functional; details: ATCC 29513, 24 h, read-out: DIZ
Aspergillus terreus = assay: Antimicrobial activity against Aspergillus terreus MTCC 1782 assessed as diameter of growth inhibition zone at 500 ug/ml after 72 hr by cup-plate method; assay type: functional; details: MTCC 1782, 72 h, read-out: DIZ
Pseudomonas aeruginosa = assay: Antimicrobial activity against Pseudomonas aeruginosa MTCC 1688 assessed as diameter of growth inhibition zone at 500 ug/ml after 24 hr by cup-plate method; assay type: functional; details: MTCC 1688, 24 h, read-out: DIZ
Aspergillus niger = assay: Antimicrobial activity against Aspergillus niger MTCC 281 assessed as diameter of growth inhibition zone at 500 ug/ml after 72 hr by cup-plate method; assay type: functional; details: MTCC 281, 72 h, read-out: DIZ
Aspergillus flavus = assay: Antimicrobial activity against Aspergillus flavus MTCC 1973 assessed as diameter of growth inhibition zone at 500 ug/ml after 72 hr by cup-plate method; assay type: functional; details: MTCC 1973, 72 h, read-out: DIZ
[1] = Metal chelating activity of the compound assessed as inhibition of ferrozine Fe2+ complex formation at 25 to 100 ug/ml after 10 min by spectrophotometric analysis; assay type: physicochemical

Row | Structure (SMILES) | zone of inhibition at 500 µg/mL (Escherichia coli) | zone of inhibition at 500 µg/mL (Aspergillus oryzae) | zone of inhibition at 500 µg/mL (Klebsiella pneumoniae) | zone of inhibition at 500 µg/mL (Staphylococcus aureus) | zone of inhibition at 500 µg/mL (Aspergillus terreus) | zone of inhibition at 500 µg/mL (Pseudomonas aeruginosa) | zone of inhibition at 500 µg/mL (Aspergillus niger) | zone of inhibition at 500 µg/mL (Aspergillus flavus) | inhibition (INH) [1]
1 | Cc1ccc(-c2cc(-c3c(-c4ccccc4)[nH]c4ccc(Cl)cc34)c3c(N)ncnc3n2)cc1 | 9 mm | 5 mm | 9 mm | 10 mm | 4 mm | 9 mm | 8 mm | 10 mm | –
2 | O=c1[nH]cnc2nc(-c3ccccc3)cc(-c3c(-c4ccccc4)[nH]c4ccccc34)c12 | 10 mm | 10 mm | 10 mm | 2 mm | 8 mm | 10 mm | 8 mm | 11 mm | Active
3 | Cc1ccc2[nH]c(-c3ccccc3)c(-c3cc(-c4ccc(Cl)cc4)nc4[nH]nc(N)c34)c2c1 | 7 mm | 8 mm | 10 mm | 10 mm | 2 mm | 8 mm | 10 mm | 11 mm | –
4 | Nc1n[nH]c2nc(-c3ccc(Cl)cc3)cc(-c3c(-c4ccccc4)[nH]c4ccccc34)c12 | 10 mm | 10 mm | 10 mm | 14 mm | 8 mm | 8 mm | 10 mm | 11 mm | Active
5 | Cc1ccc(-c2cc(-c3c(-c4ccccc4)[nH]c4ccc(C)cc34)c3c(N)ncnc3n2)cc1 | 5 mm | 8 mm | 6 mm | 10 mm | 5 mm | 5 mm | 10 mm | 5 mm | –
6 | Cc1ccc(-c2cc(-c3c(-c4ccccc4)[nH]c4ccccc34)c3c(N)ncnc3n2)cc1 | 10 mm | 10 mm | 11 mm | 11 mm | 8 mm | 10 mm | 10 mm | 8 mm | –
7 | Nc1ncnc2nc(-c3ccccc3)cc(-c3c(-c4ccccc4)[nH]c4ccccc34)c12 | 5 mm | 9 mm | 10 mm | 10 mm | 5 mm | 9 mm | 10 mm | 10 mm | –
8 | O=c1[nH]cnc2nc(-c3ccc(Cl)cc3)cc(-c3c(-c4ccccc4)[nH]c4ccccc34)c12 | 10 mm | 10 mm | 8 mm | 10 mm | 11 mm | 2 mm | 10 mm | 11 mm | –
9 | Cc1ccc(-c2cc(-c3c(-c4ccccc4)[nH]c4ccccc34)c3c(N)n[nH]c3n2)cc1 | 10 mm | 10 mm | 9 mm | 11 mm | 2 mm | 9 mm | 5 mm | 8 mm | –
10 | CN[C@@H]1[C@H](O[C@H]2[C@H](O[C@H]3[C@H](O)[C@@H](O)[C@H](N=C(N)N)[C@@H](O)[C@@H]3N=C(N)N)O[C@@H](C)[C@]2(O)C=O)O[C@@H](CO)[C@H](O)[C@H]1O [STREPTOMYCIN] | 13 mm | – | 13 mm | 13 mm | – | 13 mm | – | – | –
11 | OC(Cn1cncn1)(Cn1cncn1)c1ccc(F)cc1F [FLUCONAZOLE] | – | 14 mm | – | – | 14 mm | – | 14 mm | 14 mm | –
12 | Cc1ccc2[nH]c(-c3ccccc3)c(-c3cc(-c4ccccc4)nc4nc[nH]c(=O)c34)c2c1 | 5 mm | 8 mm | 9 mm | 6 mm | 10 mm | 10 mm | 9 mm | 10 mm | –
13 | Nc1n[nH]c2nc(-c3ccccc3)cc(-c3c(-c4ccccc4)[nH]c4ccc(Cl)cc34)c12 | 8 mm | 10 mm | 13 mm | 12 mm | 14 mm | 5 mm | 5 mm | 10 mm | –
14 | O=c1[nH]cnc2nc(-c3ccc(Cl)cc3)cc(-c3c(-c4ccccc4)[nH]c4ccc(Cl)cc34)c12 | 11 mm | 14 mm | 11 mm | 11 mm | 8 mm | 13 mm | 10 mm | 3 mm | Active
15 | Cc1ccc2[nH]c(-c3ccccc3)c(-c3cc(-c4ccc(Cl)cc4)nc4ncnc(N)c34)c2c1 | 6 mm | 8 mm | 10 mm | 8 mm | 5 mm | 11 mm | 10 mm | 11 mm | –
16 | Nc1ncnc2nc(-c3ccc(Cl)cc3)cc(-c3c(-c4ccccc4)[nH]c4ccc(Cl)cc34)c12 | 11 mm | 8 mm | 10 mm | 12 mm | 8 mm | 11 mm | 8 mm | 12 mm | –
17 | Cc1ccc2[nH]c(-c3ccccc3)c(-c3cc(-c4ccccc4)nc4ncnc(N)c34)c2c1 | 8 mm | 6 mm | 6 mm | 10 mm | 10 mm | 5 mm | 8 mm | 11 mm | –
18 | Cc1ccc(-c2cc(-c3c(-c4ccccc4)[nH]c4ccc(C)cc34)c3c(N)n[nH]c3n2)cc1 | 10 mm | 3 mm | 5 mm | 11 mm | 9 mm | 6 mm | 10 mm | 11 mm | –
19 | Cc1ccc(-c2cc(-c3c(-c4ccccc4)[nH]c4ccccc34)c3c(=O)[nH]cnc3n2)cc1 | 10 mm | 6 mm | 11 mm | 8 mm | 10 mm | 10 mm | 6 mm | 5 mm | –
